Source: patent US8106004B2, “Methods of inhibiting tumor cell aggressiveness using the microenvironment of human embryonic stem cells” (Children's Memorial Hospital, priority 2006, dated 2012)

Tested on: MDA-MB-231 breast carcinoma cells
Experiment: In vivo tumor formation, orthotopic mouse model, MDA-MB-231 breast carcinoma cells
Conditions: 500,000 MDA-MB-231 cells treated with Morpholino before injection
From the text: (A) In vivo tumor formation in a mouse injected with MDA-MB-231 cells pre-exposed for 3 days to either a control matrix (Matrigel) or a matrix conditioned by hESCs (H9 CMTX) (n=10) (B) C81-61 cells, transfected with either an empty vector or a Nodal expression construct (n=5), and (C) MDA-MB-231 cells treated with either MO^Control or MO^Nodal (n=10). […] (D) The ratio of tumor cell proliferation to apoptosis for C8161 and MDA-MB-231 derived tumors, determined by immunohistochemical staining for Ki67 and terminal deoxynucleotidyl transferase biotin-dUTP nick-end labeling (TUNEL). Prior to injection into a mouse, C8161 and MDA-MB-231 cells were cultured for 3 days on control or hESC conditioned (H9 CMTX) matrices, or treated with MO^Nodal to knock down Nodal expression. […] Proliferation is indicated by Ki67 staining and apoptotic nuclei were detected with confocal microscopy as red staining localized to the nuclei of apoptotic C8161 or MDA-MB-231 cells. […]
The effects of the hESC microenvironment on the in vivo tumorigenicity of melanoma and breast carcinoma cells were examined using orthotopic mouse models. […] The […] C81-61 melanoma cell line was unable to form palpable tumors when 500,000 cells were injected, and using gross observation and histology 5.5 weeks after inoculation, these tumor cells could not be detected at the site of injection. […]

MO^Nodal: FITC-conjugated anti-sense Morpholino to Nodal, 5′-AAGCAGCACCTCCAGCCCTTATATC-3′ [SEQ ID NO: 20] (all phosphorodiamidate morpholino (PMO); FITC conjugated, position not given here)
tumorigenicity: significant reduction
